Test results published in the NIST ThermoML archive (doi:10.1021/je0601457).
Numbers after ± are expanded uncertainties.

Assay: xn = mol fraction of the nth substance listed

Cc1nccnc1C [2,3-dimethylpyrazine] + O=C=O
Fluid (supercritical or subcritical phases), Linear displacement technique
Conditions	mass density [kg/m3]
294.15 K, 7140 kPa, x1 = 0.027	905 ± 36
294.15 K, 9590 kPa, x1 = 0.027	934 ± 37
294.15 K, 14100 kPa, x1 = 0.027	983 ± 39
294.55 K, 7140 kPa, x1 = 0.049	1099 ± 46
294.55 K, 7140 kPa, x1 = 0.184	947 ± 38
294.55 K, 8520 kPa, x1 = 0.184	949 ± 38
294.55 K, 10590 kPa, x1 = 0.049	1123 ± 45
294.55 K, 12450 kPa, x1 = 0.184	951 ± 38
294.55 K, 13830 kPa, x1 = 0.049	1142 ± 47
294.75 K, 2240 kPa, x1 = 0.736	861 ± 34
294.75 K, 3830 kPa, x1 = 0.736	864 ± 35
294.75 K, 5690 kPa, x1 = 0.736	864 ± 35
294.75 K, 6720 kPa, x1 = 0.033	836 ± 34
294.75 K, 8450 kPa, x1 = 0.033	858 ± 35
294.75 K, 13830 kPa, x1 = 0.033	911 ± 37
294.85 K, 6660 kPa, x1 = 0.108	899 ± 36
294.85 K, 7070 kPa, x1 = 0.565	958 ± 38
294.85 K, 10070 kPa, x1 = 0.108	901 ± 36
294.85 K, 10620 kPa, x1 = 0.565	961 ± 38
294.85 K, 13620 kPa, x1 = 0.108	904 ± 36
294.85 K, 15240 kPa, x1 = 0.565	964 ± 39
294.85 K, 18660 kPa, x1 = 0.108	908 ± 36
295.05 K, 7070 kPa, x1 = 0.157	995 ± 40
295.05 K, 10310 kPa, x1 = 0.157	1004 ± 40
295.05 K, 13480 kPa, x1 = 0.157	1014 ± 41
295.25 K, 6140 kPa, x1 = 0.086	767 ± 31
295.25 K, 6380 kPa, x1 = 0.057	871 ± 35
295.25 K, 7410 kPa, x1 = 0.057	885 ± 36
295.25 K, 7690 kPa, x1 = 0.01	785 ± 32
295.25 K, 8380 kPa, x1 = 0.086	778 ± 31
295.25 K, 10170 kPa, x1 = 0.057	911 ± 38
295.25 K, 11100 kPa, x1 = 0.01	833 ± 34
295.25 K, 12100 kPa, x1 = 0.086	799 ± 32
295.25 K, 15790 kPa, x1 = 0.01	873 ± 35
295.25 K, 16070 kPa, x1 = 0.086	817 ± 33
296.25 K, 4410 kPa, x1 = 0.433	989 ± 40
296.25 K, 7660 kPa, x1 = 0.433	997 ± 40
296.25 K, 10720 kPa, x1 = 0.433	1002 ± 40
301.75 K, 6620 kPa, x1 = 0.565	938 ± 38
301.75 K, 9830 kPa, x1 = 0.565	941 ± 38
301.75 K, 15790 kPa, x1 = 0.565	946 ± 38
302.65 K, 7520 kPa, x1 = 0.049	902 ± 36
302.65 K, 10030 kPa, x1 = 0.049	934 ± 37
302.65 K, 13030 kPa, x1 = 0.049	962 ± 39
302.65 K, 16660 kPa, x1 = 0.049	1000 ± 40
303.25 K, 7410 kPa, x1 = 0.291	859 ± 35
303.25 K, 9860 kPa, x1 = 0.291	860 ± 34
303.25 K, 15450 kPa, x1 = 0.291	860 ± 34
306.25 K, 7410 kPa, x1 = 0.027	750 ± 31
306.25 K, 9900 kPa, x1 = 0.027	812 ± 33
306.25 K, 13380 kPa, x1 = 0.027	864 ± 35
308.95 K, 7070 kPa, x1 = 0.157	952 ± 40
308.95 K, 9450 kPa, x1 = 0.157	964 ± 39
308.95 K, 13480 kPa, x1 = 0.157	981 ± 39
308.95 K, 17690 kPa, x1 = 0.157	996 ± 40
310.85 K, 6970 kPa, x1 = 0.433	967 ± 39
310.85 K, 12480 kPa, x1 = 0.433	975 ± 39
310.85 K, 21340 kPa, x1 = 0.433	994 ± 40
311.45 K, 7380 kPa, x1 = 0.184	912 ± 37
311.45 K, 9210 kPa, x1 = 0.184	918 ± 37
311.45 K, 12380 kPa, x1 = 0.184	925 ± 37
311.45 K, 16720 kPa, x1 = 0.184	932 ± 37
312.65 K, 10170 kPa, x1 = 0.033	763 ± 31
312.65 K, 12660 kPa, x1 = 0.033	804 ± 33
312.65 K, 15970 kPa, x1 = 0.033	851 ± 34
312.75 K, 8520 kPa, x1 = 0.057	874 ± 35
312.75 K, 9970 kPa, x1 = 0.057	905 ± 37
312.75 K, 10450 kPa, x1 = 0.057	914 ± 38
313.95 K, 10520 kPa, x1 = 0.108	879 ± 35
313.95 K, 13660 kPa, x1 = 0.108	888 ± 36
313.95 K, 17210 kPa, x1 = 0.108	896 ± 36
314.25 K, 9830 kPa, x1 = 0.01	500 ± 40
314.25 K, 11830 kPa, x1 = 0.01	769 ± 32
314.25 K, 18590 kPa, x1 = 0.01	799 ± 32
315.85 K, 9380 kPa, x1 = 0.086	702 ± 29
315.85 K, 12310 kPa, x1 = 0.086	728 ± 29
315.85 K, 16520 kPa, x1 = 0.086	752 ± 30
315.85 K, 24210 kPa, x1 = 0.086	786 ± 31
316.05 K, 7480 kPa, x1 = 0.291	857 ± 34
316.05 K, 8660 kPa, x1 = 0.291	858 ± 34
316.05 K, 11340 kPa, x1 = 0.291	858 ± 35
316.25 K, 6170 kPa, x1 = 0.565	923 ± 37
316.25 K, 10000 kPa, x1 = 0.565	926 ± 37
316.25 K, 16380 kPa, x1 = 0.565	935 ± 37
317.35 K, 5590 kPa, x1 = 0.736	859 ± 34
317.35 K, 11590 kPa, x1 = 0.736	860 ± 34
317.35 K, 16450 kPa, x1 = 0.736	862 ± 34
318.75 K, 7690 kPa, x1 = 0.433	955 ± 38
318.75 K, 16070 kPa, x1 = 0.433	969 ± 39
318.75 K, 22930 kPa, x1 = 0.433	977 ± 39
319.35 K, 10520 kPa, x1 = 0.049	834 ± 34
319.35 K, 15340 kPa, x1 = 0.049	906 ± 36
319.35 K, 18660 kPa, x1 = 0.049	946 ± 38
321.05 K, 10210 kPa, x1 = 0.157	927 ± 38
321.05 K, 12000 kPa, x1 = 0.157	937 ± 38
321.05 K, 16280 kPa, x1 = 0.157	958 ± 38
321.05 K, 18660 kPa, x1 = 0.157	970 ± 39
322.35 K, 11790 kPa, x1 = 0.027	717 ± 30
322.35 K, 13000 kPa, x1 = 0.027	688 ± 28
322.35 K, 13410 kPa, x1 = 0.027	761 ± 47
322.35 K, 15620 kPa, x1 = 0.027	757 ± 31
322.35 K, 16310 kPa, x1 = 0.027	812 ± 33
323.35 K, 10660 kPa, x1 = 0.057	815 ± 33
323.35 K, 11970 kPa, x1 = 0.057	849 ± 34
323.35 K, 16030 kPa, x1 = 0.057	904 ± 36
324.95 K, 7830 kPa, x1 = 0.433	944 ± 38
324.95 K, 13900 kPa, x1 = 0.433	955 ± 38
324.95 K, 20660 kPa, x1 = 0.433	968 ± 39
325.25 K, 6140 kPa, x1 = 0.736	859 ± 34
325.25 K, 10720 kPa, x1 = 0.736	860 ± 34
325.25 K, 18170 kPa, x1 = 0.736	861 ± 34
325.65 K, 10520 kPa, x1 = 0.184	894 ± 36
325.65 K, 12660 kPa, x1 = 0.184	903 ± 36
325.65 K, 18030 kPa, x1 = 0.184	916 ± 37
328.55 K, 10170 kPa, x1 = 0.291	857 ± 35
328.55 K, 10660 kPa, x1 = 0.01	438 ± 63
328.55 K, 10970 kPa, x1 = 0.01	552 ± 44
328.55 K, 11970 kPa, x1 = 0.01	635 ± 32
328.55 K, 12140 kPa, x1 = 0.291	858 ± 34
328.55 K, 13000 kPa, x1 = 0.01	688 ± 29

Liquid, linear displacement
Conditions	mass density [kg/m3]
294.15 K, x1 = 0.027	868 ± 35
294.55 K, x1 = 0.049	1077 ± 43
294.55 K, x1 = 0.184	945 ± 38
294.75 K, x1 = 0.033	802 ± 32
294.75 K, x1 = 0.736	861 ± 35
294.85 K, x1 = 0.108	896 ± 37
294.85 K, x1 = 0.565	947 ± 38
295.05 K, x1 = 0.157	982 ± 39
295.25 K, x1 = 0.01	735 ± 29
295.25 K, x1 = 0.057	832 ± 33
295.25 K, x1 = 0.086	730 ± 29
296.25 K, x1 = 0.433	985 ± 39
301.75 K, x1 = 0.565	920 ± 37
302.65 K, x1 = 0.049	876 ± 35
303.25 K, x1 = 0.291	858 ± 34
306.25 K, x1 = 0.027	738 ± 30
308.95 K, x1 = 0.157	948 ± 38
310.85 K, x1 = 0.433	962 ± 39
311.45 K, x1 = 0.184	912 ± 36
312.65 K, x1 = 0.033	694 ± 28
312.75 K, x1 = 0.057	860 ± 35
313.95 K, x1 = 0.108	864 ± 35
314.25 K, x1 = 0.01	584 ± 23
315.85 K, x1 = 0.086	687 ± 28
316.05 K, x1 = 0.291	858 ± 35
316.25 K, x1 = 0.565	920 ± 37
317.35 K, x1 = 0.736	859 ± 35
318.75 K, x1 = 0.433	951 ± 38
319.35 K, x1 = 0.049	790 ± 32
321.05 K, x1 = 0.157	912 ± 37
322.35 K, x1 = 0.027	612 ± 25
323.35 K, x1 = 0.057	784 ± 31
324.95 K, x1 = 0.433	940 ± 38
325.25 K, x1 = 0.736	857 ± 35
325.65 K, x1 = 0.184	885 ± 35
